Assay results reported in patent US5616609A, “Carcinostatic compound and production thereof” (priority 1991, dated 1997).
Where two headings read alike, the source gives them in different places.

Experiments:
[1] = test system: LU-99 pulmonary cancer cells; test: Inhibition of proliferation of human pulmonary cancer cells LU-99 (Tests 2 and 4); type: cell-based; conditions: pulmonary cancer LU-99, RMP-1640 + 10% calf serum, 37° C.
Procedure: (§1) Cells of gastric cancer, pulmonary cancer, liver cancer and leukemia, which had been separated from human patients, were separately placed in portions of RMP-1640 medium containing 10% calf serum and then incubated at 37° C. for 4 days in a 5% CO2 -incubator to obtain a cell population of 10^4 /ml. To the cells of each cancer kind so cultured, stelleramacrin was added at varied concentrations, and the concentration (IC50) of each test compound at which proliferation of the human cancer cells was inhibited by 50% was deterimined.
as §1, with “separately placed on portions of” for “separately placed in portions of”, “so cultured, gnidimacrin or pimelea factor was added” for “so cultured, stelleramacrin was added”, “(IC50) of the test compound” for “(IC50) of each test compound”, “50% was determined.” for “50% was deterimined.”

[2] = test system: K-III gastric cancer cells; test: Inhibition of proliferation of human gastric cancer cells K-III (Tests 2 and 4); type: cell-based; conditions: RMP-1640 + 10% calf serum, 37° C.
Procedure: as §1
as §1, with “separately placed on portions of” for “separately placed in portions of”, “so cultured, gnidimacrin or pimelea factor was added” for “so cultured, stelleramacrin was added”, “(IC50) of the test compound” for “(IC50) of each test compound”, “50% was determined.” for “50% was deterimined.”

[3] = test system: Lewis pulmonary cancer cells; test: Lewis pulmonary cancer in mice, intravenous administration; type: in vivo, mouse; conditions: 0.06 mg/Kg
K-502 leukemia cells = test: Inhibition of proliferation of human leukemia cells K-502 (Tests 2 and 4); type: cell-based; conditions: leukemia K-502, RMP-1640 + 10% calf serum, 37° C.
Procedure: as §1
as §1, with “separately placed on portions of” for “separately placed in portions of”, “so cultured, gnidimacrin or pimelea factor was added” for “so cultured, stelleramacrin was added”, “(IC50) of the test compound” for “(IC50) of each test compound”, “50% was determined.” for “50% was deterimined.”

[4] = test system: PC-14 pulmonary cancer cells; test: Inhibition of proliferation of human pulmonary cancer cells PC-14 (Tests 2 and 4); type: cell-based; conditions: pulmonary cancer PC-14, RMP-1640 + 10% calf serum, 37° C.
Procedure: as §1
as §1, with “separately placed on portions of” for “separately placed in portions of”, “so cultured, gnidimacrin or pimelea factor was added” for “so cultured, stelleramacrin was added”, “(IC50) of the test compound” for “(IC50) of each test compound”, “50% was determined.” for “50% was deterimined.”

[5] = test system: H-69 pulmonary cancer cells; test: Inhibition of proliferation of human pulmonary cancer cells H-69 (Tests 2 and 4); type: cell-based; conditions: pulmonary cancer H-69, RMP-1640 + 10% calf serum, 37° C.
Procedure: as §1
as §1, with “separately placed on portions of” for “separately placed in portions of”, “so cultured, gnidimacrin or pimelea factor was added” for “so cultured, stelleramacrin was added”, “(IC50) of the test compound” for “(IC50) of each test compound”, “50% was determined.” for “50% was deterimined.”

[6] = test system: MKV-74 gastric cancer cells; test: Inhibition of proliferation of human gastric cancer cells MKV-74 (Tests 2 and 4); type: cell-based; conditions: gastric cancer MKV-74, RMP-1640 + 10% calf serum, 37° C.
Procedure: as §1
as §1, with “separately placed on portions of” for “separately placed in portions of”, “so cultured, gnidimacrin or pimelea factor was added” for “so cultured, stelleramacrin was added”, “(IC50) of the test compound” for “(IC50) of each test compound”, “50% was determined.” for “50% was deterimined.”

[7] = test system: MKV-45 gastric cancer cells; test: Inhibition of proliferation of human gastric cancer cells MKV-45 (Tests 2 and 4); type: cell-based; conditions: gastric cancer MKV-45, RMP-1640 + 10% calf serum, 37° C.
Procedure: as §1
as §1, with “separately placed on portions of” for “separately placed in portions of”, “so cultured, gnidimacrin or pimelea factor was added” for “so cultured, stelleramacrin was added”, “(IC50) of the test compound” for “(IC50) of each test compound”, “50% was determined.” for “50% was deterimined.”

[8] = test system: N-237 pulmonary cancer cells; test: Inhibition of proliferation of human pulmonary cancer cells N-237 (Tests 2 and 4); type: cell-based; conditions: pulmonary cancer N-237, RMP-1640 + 10% calf serum, 37° C.
Procedure: as §1
as §1, with “separately placed on portions of” for “separately placed in portions of”, “so cultured, gnidimacrin or pimelea factor was added” for “so cultured, stelleramacrin was added”, “(IC50) of the test compound” for “(IC50) of each test compound”, “50% was determined.” for “50% was deterimined.”

[9] = test system: PC-7 pulmonary cancer cells; test: Inhibition of proliferation of human pulmonary cancer cells PC-7 (Tests 2 and 4); type: cell-based; conditions: pulmonary cancer PC-7, RMP-1640 + 10% calf serum, 37° C.
Procedure: as §1
as §1, with “separately placed on portions of” for “separately placed in portions of”, “so cultured, gnidimacrin or pimelea factor was added” for “so cultured, stelleramacrin was added”, “(IC50) of the test compound” for “(IC50) of each test compound”, “50% was determined.” for “50% was deterimined.”

[10] = test system: Lewis pulmonary cancer cells; test: Lewis pulmonary cancer, hypodermic transplant in BDF1 mice (Test 3); type: in vivo, mouse (BDF1); conditions: once a day for 5 days, vs control
Procedure: (§2) Hypodermically transplanted to induce solid cancer were Lewis pulmonary cancer cells to BDF1 mice in an amount of 1×10^6 cells per mouse, Clon 26 large bowel cancer cells to BALB/C mice in an amount of 5×10^5 cells per mouse and a 20% homogenate of B-16 melanoma solid cancer to BDF1 mice in an amount of 0.25 ml per mouse. From the following day of the transplantation, gnidimacrin and pimelea factor P2 were administered separately once a day for 5 days. Each test group was compared in apothanasia rate with a control group. The results on gnidimacrin and pimelea factor P2 are shown in Table 3 and Table 4, respectively.

Meth A fibrosarcoma = Meth A fibrosarcoma solid cancer in male BALB/c mice, injection into the cancer (Test 5); type: in vivo, mouse (BALB/c); conditions: 0.001 mg/Kg injected into solid cancer once a day for 5 days, 21st day
Procedure: Using laboratory animals, effects of gnidimacrin on solid cancer were studied. First, intradermally inoculated to male BALB/c mice (each group consisting of 6 mice, each having a weight of 17-21 g) was 0.01 ml of RPMI 1640 solution which contained 10% fetal serum and 1×10^5 cells/ml of Meth A fibrosarcoma. Seven days after the inoculation, solid cancer was formed. Into the solid cancer, gnidimacrin which had been dissolved in physiological saline containing 0.5% CMC, was administered at 0.001 mg/Kg by injection. That administration was conducted once a day for 5 days. On the 21st day from the inoculation of Meth A fibrosarcoma, the cancer was cut out and its weight was compared with that of a control group not administered with gnidimacrin. […] Namely, gnidimacrin inhibited the proliferation of the solid cancer by 81%.

[11] = test system: solid cancer such as gastric cancer, pulmonary cancer, liver cancer; test: Inhibiting action against solid cancer (summary statement); conditions: liver cancer or the like
[12] = test system: Colon 26 large bowel cancer; test: Colon 26 large bowel cancer, hypodermic transplant in BALB/C mice (Test 3); type: in vivo, mouse (BALB/C); conditions: once a day for 5 days, vs control
Procedure: as §2

[13] = test system: MKU-28 gastric cancer cells; test: Inhibition of proliferation of human gastric cancer cells MKU-28 (Tests 2 and 4); type: cell-based; conditions: gastric cancer MKU-28, RMP-1640 + 10% calf serum, 37° C.
Procedure: as §1
as §1, with “separately placed on portions of” for “separately placed in portions of”, “so cultured, gnidimacrin or pimelea factor was added” for “so cultured, stelleramacrin was added”, “(IC50) of the test compound” for “(IC50) of each test compound”, “50% was determined.” for “50% was deterimined.”

B-16 melanoma = test: B-16 melanoma, hypodermic transplant in BDF1 mice (Test 3); type: in vivo, mouse (BDF1); conditions: once a day for 5 days, vs control
Procedure: as §2

HLE liver cancer cells = test: Inhibition of proliferation of human liver cancer cells HLE (Tests 2 and 4); type: cell-based; conditions: RMP-1640 + 10% calf serum, 37° C.
Procedure: as §1
as §1, with “separately placed on portions of” for “separately placed in portions of”, “so cultured, gnidimacrin or pimelea factor was added” for “so cultured, stelleramacrin was added”, “(IC50) of the test compound” for “(IC50) of each test compound”, “50% was determined.” for “50% was deterimined.”

[14] = test system: mouse leukemia cell P-388; test: P-388 mouse leukemia, intraperitoneal transplant in BDF1 mice, survival (Test 1); type: in vivo; conditions: 1 mg/kg, once a day for 5 days
From the text: The mouse leukemia cell P-388 was intraperitoneally transplanted to BDF1 mice in an amount of 1×10^6 cells per mouse. From the following day, each test drug was intraperitoneally administered to the mice once a day for 5 days. Each test group was compared in the number of survival days with a control group to determine an apothanasia rate.

Acute toxicity (LD50) = conditions: in vivo; species and route not given

Structure (SMILES) | IC50 ([1]; Homo sapiens, read-out: IC50) | IC50 ([2]; Homo sapiens, read-out: IC50) | IC50 (K-502 leukemia cells; Homo sapiens, read-out: IC50) | IC50 ([4]; Homo sapiens, read-out: IC50) | IC50 ([5]; Homo sapiens, read-out: IC50) | IC50 ([6]; Homo sapiens, read-out: IC50) | IC50 ([7]; Homo sapiens, read-out: IC50) | IC50 ([8]; Homo sapiens, read-out: IC50) | IC50 ([9]; Homo sapiens, read-out: IC50) | inhibiting action against solid cancer [11] | IC50 ([13]; Homo sapiens, read-out: IC50) | IC50 (HLE liver cancer cells; Homo sapiens, read-out: IC50) | further results
C=C(C)[C@@]12C[C@@H](COC(=O)c3ccccc3)[C@@]34OC5(O[C@@H]1[C@@H]3[C@@H]1O[C@]1(CO)[C@@H](O)[C@@]1(O)[C@H]4[C@H]([C@H](C)[C@@H]1OC(=O)c1ccccc1)[C@H](C)CCCCCC[C@H]5O)O2 (single isomer, unassigned) [Gnidimacrin, gnidimacrin] | 1 µg/mL | 0.0006 µg/mL | 0.0025 µg/mL | 0.85 µg/mL | 0.6 µg/mL | > 1 µg/mL | 0.0001 µg/mL | 0.2 µg/mL | 0.5 µg/mL | strong inhibiting action | 0.006 µg/mL | 2 µg/mL | Apothanasia rate [3]: 47.8%; Apothanasia rate ([10]; 0.02 mg/kg): 40.0%; average cancer weight (Meth A fibrosarcoma; control group 2.1 g): 0.4 g; inhibition of the proliferation of the solid cancer (Meth A fibrosarcoma; vs control): 81%; Apothanasia rate ([12]; 0.01 mg/kg): 26.8%; Apothanasia rate (B-16 melanoma; 0.02 mg/kg): 49.2%
C=C(C)C12CC(COC(=O)c3ccccc3)C34OC5(OC1C3C1OC1(CO)C(O)C1(O)C(O)C(C)C(C(C)CCCCCCC5O)C14)O2 (single isomer, unassigned) [Stelleramacrin A] | > 10 µg/mL | 0.1 µg/mL | 10 µg/mL | 8.4 µg/mL | 10.2 µg/mL | > 10 µg/mL | 0.8 µg/mL | 5.3 µg/mL | 5.1 µg/mL | – | 0.2 µg/mL | > 10 µg/mL | Average number of survival days ([14]; control group 8.08 days): 13.83 days; Apothanasia rate ([14]; survival days vs control): 71%; LD50 (Acute toxicity (LD50)): 5 mg/kg
C=C(C)[C@]12C[C@@H](C)[C@@]34OC5(CCCCCCC[C@H](C)[C@H]6[C@H](C)[C@H](OC(=O)c7ccccc7)[C@@](O)([C@H](O)[C@@]7(CO)O[C@H]7[C@H]3[C@H]1O5)[C@@H]64)O2 [Pimelea factor P2, pimelea factor P2] | – | – | – | – | – | – | – | – | – | strong inhibiting action | – | – | IC50 [1]: 10 µg/mL; IC50 [2]: 0.003 µg/mL; IC50 (K-502 leukemia cells): 0.3 µg/mL; IC50 [4]: 3.2 µg/mL; IC50 [5]: 7 µg/mL; IC50 [6]: 10 µg/mL; IC50 [7]: 0.005 µg/mL; IC50 [8]: 3.8 µg/mL; IC50 [9]: 1.7 µg/mL; Apothanasia rate ([10]; 0.1 mg/kg): 35.2%; Apothanasia rate ([12]; 0.05 mg/kg): 18.5%; IC50 [13]: 0.01 µg/mL; Apothanasia rate (B-16 melanoma; 0.1 mg/kg): 41.8%; IC50 (HLE liver cancer cells): 10 µg/mL
